Assay results taken from article PMC10709327, “A class of secreted mammalian peptides with potential to expand cell-cell communication” (Nature Communications, 2023).
“And” between values parts separate entries of the source, which are not always exact repeats. Equal values may be shown once. Where a SMILES comes first, the peptide text is derived from it. [ ]: non-standard residue; d: D form. pGlu = O=C1CC[C@@H](C(=O)O)N1

Key:
[1] = CAP-GDF15 plasma concentration after administration; type: in vivo, mouse; conditions: for Plasma concentration after administration (Supplementary Figure 5a): 50 mg/kg, unit not given
Procedure: To test this possibility, we administered a single dose of CAP-GDF15 (50 mg/kg, intraperitoneally) to diet-induced obese mice and measured whole body parameters of energy balance in metabolic chambers. At this dose, concentrations of plasma CAP-GDF15 rose by 5-fold from baseline at 30 min post-administration (Supplementary Fig. 5A). […] A corresponding and expected suppression of respiratory exchange ratio (RER) was also observed (Fig. 5c).
(§1) Supplementary Figure 5. Additional measurements from metabolic chambers of mice treated with CAP-GDF15. a CAP-GDF15 plasma concentration after administration of CAP-GDF15 (50 mg/kg, intraperitoneal) or vehicle control. b-c VO2 (b) and VCO2 (c) of 12-16-week diet-induced obese male mice following a single treatment of CAP-GDF15 (50 mg/kg, intraperitoneal) or vehicle control. d-e VO2 (d) and VCO2 (e) of 12-16-week diet-induced obese male mice following a single treatment of scrambled CAP-GDF15 (50 mg/kg, intraperitoneal, scrambled sequence: p[…]-NH2) or vehicle control. f Acute food intake of 12-16-week diet-induced obese male mice following a single treatment of CAP-GDF15 (50 mg/kg, intraperitoneal), uncapped CAP-GDF15 (50 mg/kg, intraperitoneal), or vehicle control. For (a), N=3/group; (b-c), N=12/group; for (d-e), N=8/group; for (f), N=5/group.
(§2) For (a-f), injection occurred at time T=0 (5:00pm). Data are shown as means ± SEM. For (b-i), p values were calculated by two-way ANOVA. Source data are provided as a Source Data

[2] = system: diet-induced obese male mice; assay: Metabolic chamber studies after a single dose (food intake, RER, movement, VO2, VCO2); type: in vivo, mouse; conditions: single dose 50 mg/kg intraperitoneal
Procedure: Fig. 5 Functional studies of […] in feeding and energy balance in mice. a Schematic of the primary amino acid sequence for full-length mouse GDF15 preproprotein and annotation of CAP-GDF15 sequence as well as the canonical GDF15 hormone sequence. b–d Food intake (b), respiratory exchange ratio (RER, c), and ambulatory activity (d) of 12–16-week diet-induced obese male mice following a single treatment of CAP-GDF15 (50 mg/kg, intraperitoneal) or vehicle control. e–g Food intake (e), RER (f), and ambulatory activity (g) of 12–16-week diet-induced obese male mice following a single treatment of scrambled CAP-GDF15 (50 mg/kg, intraperitoneal, scrambled sequence: pGlu-[…]-NH2) or vehicle control. h, i 3-day food intake (h) and body weight (i) of 12–16-week diet-induced obese male mice following treatment with CAP-GDF15 or scrambled CAP-GDF15 (50 mg/kg/day, IP), or vehicle control. […] For (b-i), p values were calculated by two-way ANOVA. Source data are provided as a Source Data file.
Animal experiments were performed according to a procedure approved by the Stanford University Administrative Panel on Laboratory Animal Care. Mice were maintained in 12-h light-dark cycles at 22 °C and about 50% relative humidity and fed a standard irradiated rodent diet. Where indicated, a high-fat diet (D12492, Research Diets 60% kcal from fat) was used. Male C57BL/6 J (stock number 000664) and male C57BL/6 J DIO mice were purchased from the Jackson Laboratory (stock number 380050). For studies in high-fat diet-fed mice, peptides were dissolved in 18:1:1 (by volume) of saline:Kolliphor EL (Sigma Aldrich):DMSO and administered to mice by intraperitoneal injections at a volume of 10 µl/g at the indicated doses for the indicated times. For lipopolysacchardide injection, LPS (Sigma, #L2880-10MG) was dissolved in saline and administered to mice at a volume of 5 µl/g at indicated dose. For fasting, food was removed from mice for 16 h. For running, a six-lane Columbus Instruments animal treadmill (product 1055-SRM-D65) was used with following 1 h protocol: 10 min at 6 m/min, 50 min at 18 m/min, and increase every 2 min by 2 m/min for the last 10 minutes, all at 12° incline. For all treatment experiments, mice were mock injected with the vehicle for 3–5 days until body weights were stabilized. Heparin plasma was harvested by submandibular bleed. For all experiments, mice were randomly assigned to treatment groups. Experimenters were not blinded to groups.
For acute energy expenditure studies, food intake, RER, movement, VO2, and VCO2 were collected with CLAMS Oxymax Metabolic Cages. Mice were placed in individual metabolic cages for 24 hours prior to experiment. Mice were injected with either vehicle, 50 mg/kg CAP-GDF15, 50 mg/kg uncapped CAP-GDF15, or 50 mg/kg scrambled CAP-GDF15 at 5 pm at T = 0. […] All experiments were done with 3–5 month old DIO mice (Jackson, stock 380050), fed high-fat diet ad libitum.
as §1, §2

[3] = diet-induced obese male mice, N = 12/group

rise of plasma CAP-GDF15 concentration from baseline ([1]; 50 mg/kg intraperitoneal, 30 min post-administration, N = 3/group): ~ 5 fold and 5 fold | Plasma concentration after administration (Supplementary Figure 5a) ([1]; 0 minutes (same values as vehicle), animal 1): 2.565 | Plasma concentration after administration (Supplementary Figure 5a) ([1]; 0 minutes (same values as vehicle), animal 2): 0.7876 | Plasma concentration after administration (Supplementary Figure 5a) ([1]; 0 minutes (same values as vehicle), animal 3): 0.4564 | Plasma concentration after administration (Supplementary Figure 5a) ([1]; 10 minutes, animal 1): 3.639 | Plasma concentration after administration (Supplementary Figure 5a) ([1]; 10 minutes, animal 2): 4.514 | Plasma concentration after administration (Supplementary Figure 5a) ([1]; 10 minutes, animal 3): 3.221 | Plasma concentration after administration (Supplementary Figure 5a) ([1]; 30 minutes, animal 1): 2.641 | Plasma concentration after administration (Supplementary Figure 5a) ([1]; 30 minutes, animal 2): 3.3984 | Plasma concentration after administration (Supplementary Figure 5a) ([1]; 30 minutes, animal 3): 2.342 | Plasma concentration after administration (Supplementary Figure 5a) ([1]; 60 minutes, animal 1): 0.6432 | Plasma concentration after administration (Supplementary Figure 5a) ([1]; 60 minutes, animal 2): 0.7838 | Plasma concentration after administration (Supplementary Figure 5a) ([1]; 60 minutes, animal 3): 0.7186 | Cmax ([1]; mouse, plasma, ip, 50 mg/kg intraperitoneal, from approximately 1 nM endogenous level, read-out: maximum plasma concentration after dosing, as read from the figure by a reviewer): 4 nM
SMILES: CC(C)C[C@H](NC(=O)[C@@H]1CCC(=O)N1)C(=O)N[C@@H](CCC(=O)O)C(=O)N[C@@H](CC(C)C)C(=O)N[C@@H](CCCNC(=N)N)C(=O)N[C@@H](CC(C)C)C(=O)N[C@@H](CCCNC(=N)N)C(=O)N[C@H](C(=O)N[C@@H](C)C(=O)N[C@@H](C)C(=O)NCC(=O)N[C@@H](CCCNC(=N)N)C(N)=O)C(C)C [CAP-GDF15] ([pGlu]LELRLRVAAGR-NH2)
suppression of food intake compared to vehicle-treated mice ([2]; 12–16-week diet-induced obese male mice, 16 h after injection, N = 12 mice/group): ~ 60% | effect on carbon dioxide production (VCO2) [2, 3]: did not alter | effect on oxygen consumption (VO2) [2, 3]: did not alter | effect on movement (ambulatory activity) ([2]; diet-induced obese male mice, N = 12 mice/group): did not alter | effect on respiratory exchange ratio (RER) ([2]; diet-induced obese male mice, metabolic chambers): suppression
